The record followed here is the OligoGym collection.

The target of one data set is KRAS. Particulars: ASO.
A further data set addresses IRF5. Particulars: ASO.

Where “and” joins values, the source holds several entries; their conditions need not be identical. Equal values may be shown once. After the bases stand the sugars from the 5' end (letter, count) and the backbone: PS all phosphorothioate, else s phosphorothioate and o phosphodiester by linkage. Methylation of C is not given here. e = 2'-O-(2-methoxyethyl) (MOE); k = constrained ethyl (cEt); d = 2'-deoxy (DNA)

Take “TGGTGTAACATAGGTT (sugars kkddddddddkekekk, PS)”: the target mRNA inhibition with KRAS (A431, 0.185 µM) was determined as 11%; in the data set with KRAS (A431, 0.556 µM) it was 33%; with KRAS (A431, 1.667 µM) it was 58%; with KRAS (A431, 2 µM) it was 55%; in the data set with KRAS (A431, 5 µM), 68%.

For TAGGGCATTTCTGATG (sugars k3 d10 k3, PS), the target mRNA inhibition in the data set with KRAS (A431, 2 µM) amounted to 20%.

In turn, “GCTGTGAAACTCTCTA (sugars kkddddddddkekekk, PS)” had a target mRNA inhibition with KRAS (A431, 2 µM) of 16%.

Consider “TTGATTTGTCAGCAGG (sugars kkkddddddddkekek, PS)”, for which, in the data set with KRAS (A431, 2 µM), the target mRNA inhibition is 37% and 12%.

In the data set with KRAS (A431, 2 µM), “CCATTCAAAGTTCACA (sugars kkkddddddddkekek, PS)” registered a target mRNA inhibition of 39%.

Regarding AAATCTTATGGTTAGG (sugars k3 d10 k3, PS), in the data set with KRAS (A431, 2 µM), the target mRNA inhibition was 34%.

“AGATTGTGCTGAGCTT (sugars kdddddddddkekeke, PS)” came in with a target mRNA inhibition with KRAS (A431, 2 µM) of 0%.

The sequence “TCCAGTGATACTTTCA (sugars k3 d9 k3 e1, PS)” showed a target mRNA inhibition with KRAS (A431, 2 µM) of 47%.

Sequence “GTTCTTGGACTCTCAA (sugars kkddddddddkekekk, PS)” returned a target mRNA inhibition in the data set with IRF5 (KARPAS-229, 4 µM) of 0%.

“TCACCACTGTGTACCC (sugars kkddddddddddkeke, PS)” returned a target mRNA inhibition with IRF5 (KARPAS-229, 4 µM) of 0%.

As to “TCCAATTTTGCATTCC (sugars k3 d9 k3 e1, PS)”, in the data set with IRF5 (KARPAS-229, 4 µM), the target mRNA inhibition is 7%.

The sequence “TTATCTCCGTCCTGGC (sugars kkkddddddddkekek, PS)” returned a target mRNA inhibition in the data set with IRF5 (KARPAS-229, 4 µM) of 0%.

In the data set with IRF5 (KARPAS-229, 4 µM), TTGTGACTGTATTACC (sugars k3 d10 k3, PS) had a target mRNA inhibition of 56%.

In turn, “AGGAAGTGAGTCTCAA (sugars kkkddddddddkekek, PS)” showed a target mRNA inhibition with IRF5 (KARPAS-229, 4 µM) of 24%.

“CATCTCCACATCAGTC (sugars kkddddddddkekekk, PS)” came in with a target mRNA inhibition in the data set with IRF5 (KARPAS-229, 4 µM) of 23%.

Sequence “CCTTCTGCAGGGAGTC (sugars kkkddddddddkekek, PS)” had a target mRNA inhibition in the data set with IRF5 (KARPAS-229, 4 µM) of 0%.

In the data set with IRF5 (KARPAS-229, 4 µM), “GGTGTATTTCCCTGTC (sugars kkddddddddddkeke, PS)” showed a target mRNA inhibition of 21%.

On to “GGTCTTGACCTCCCGC (sugars kekdddddddddeekk, PS)”, for which the target mRNA inhibition in the data set with IRF5 (KARPAS-229, 4 µM) worked out at 33%.

For the sequence “CAGGTTCTTGGACTCT (sugars kkkdddddddddkeke, PS)”, in the data set with IRF5 (KARPAS-229, 4 µM), the target mRNA inhibition came to 1%.

“GCATTCCATATACACA (sugars kddddddddddkekek, PS)” showed a target mRNA inhibition with IRF5 (KARPAS-229, 4 µM) of 39%.

In turn, “ACCATTCTATGCCTTT (sugars kkdddddddddkekek, PS)” returned a target mRNA inhibition with IRF5 (KARPAS-229, 4 µM) of 40%.

Turning to “CTGATATGATACCTAA (sugars k3 d2 k1 d7 k3, PS)”, the target mRNA inhibition came out at 18% with IRF5 (A-431, 0.00412 µM); 23% with IRF5 (A-431, 0.01225 µM); 41% with IRF5 (A-431, 0.03704 µM); 63% in the data set with IRF5 (A-431, 0.11111 µM); 80% with IRF5 (A-431, 0.33333 µM); 75% in the data set with IRF5 (A-431, 1 µM).

In the case of “ACTGACACAGGCGGAT (sugars kkddddddddddkeke, PS)”, the target mRNA inhibition in the data set with IRF5 (KARPAS-229, 4 µM) came out at 0%.

“TGAGTCATGGGCTGAG (sugars kkddddddddkekekk, PS)” came in with a target mRNA inhibition with IRF5 (KARPAS-229, 4 µM) of 0%.

In the data set with IRF5 (KARPAS-229, 4 µM), “ACTGACACAGGCGGAT (sugars k2 d9 e3 k2, PS)” yielded a target mRNA inhibition of 0%.

Take “ATCACCACTGTGTACC (sugars kddddddddddkekek, PS)”: in the data set with IRF5 (KARPAS-229, 4 µM), the target mRNA inhibition was found to be 0%.

In the case of “AGGTTCTTGGACTCTC (sugars kkkdddddddddkeke, PS)”, the target mRNA inhibition in the data set with IRF5 (KARPAS-229, 4 µM) came to 0%.

Regarding “CCAATTTTGCATTCCA (sugars k3 d9 k3 e1, PS)”, the target mRNA inhibition with IRF5 (KARPAS-229, 0.44444 µM) was 61% and 54% and 62%; in the data set with IRF5 (KARPAS-229, 1.33333 µM), 79% and 75% and 82%; in the data set with IRF5 (KARPAS-229, 12 µM) it was 88% and 91%.

For “GCATTCCATATACACA (sugars kkkddddddddkdkdk, PS)”, the target mRNA inhibition in the data set with IRF5 (KARPAS-229, 4 µM) is 0%.
